Data from patent publication US20070218121A1, “Compounds that inhibit caspase activity for treating glaucoma” (priority 1997, published 2007).

Tested on: HEK-293-nNOS cells transfected with mICE-lacZ (caspase-1)
Experiment: Inhibition of caspase-induced apoptosis by endogenous NO in HEK-293-nNOS cells transfected with mICE-lacZ (propidium iodide, apoptotic nuclei count)
Type: cell-based
Settings: 6 μM 4-Br-A23187 for 48 h after caspase-1 transfection; raises Ca2+ to activate nNOS and produce NO; p≦0.007; FIG. 1
Protocol: HEK-293 cells [Bredt et al., Nature 351: 714-719 (199)] overexpressing nNOS were transiently transfected with mICE-lacZ (containing the caspase-1 construct [Miura et al., Cell 75: 653-660 (1993)] or control placZ using the calcium phosphate precipitation method. Following transfection, cells were incubated in absence (0 μM) or presence of 6 μM 4-Br-A23187 for 48 h. Cells were then permeabilized, fixed, and stained with propidium iodide. Apoptotic nuclei were counted in ≧12 fields and results expressed as a percentage of total nuclei. The results are shown in FIG. 1. Values are the mean ± SEM for n≧3 from at least two experiments.

In the case of `CNc1c(Br)cc2oc(C[C@H]3OC4(CC[C@H]3C)O[C@H]([C@H](C)C(=O)c3ccc[nH]3)[C@H](C)C[C@H]4C)nc2c1C(=O)O` (stereo partly shown) [4-Br-A23187], the “apoptosis (apoptotic nuclei as percentage of total nuclei)” value is reported as “highly significant decrease in apoptosis”.
